Data on 20 molecules can be found in PMC4724233 (European journal of medicinal chemistry, 2015).

Data set [1] addresses T1, GST-hCAR-LBD (Homo sapiens, UniProt Q14994).
T1 sequence (Q14994 109-348 isoform Q14994-2 limits assumed): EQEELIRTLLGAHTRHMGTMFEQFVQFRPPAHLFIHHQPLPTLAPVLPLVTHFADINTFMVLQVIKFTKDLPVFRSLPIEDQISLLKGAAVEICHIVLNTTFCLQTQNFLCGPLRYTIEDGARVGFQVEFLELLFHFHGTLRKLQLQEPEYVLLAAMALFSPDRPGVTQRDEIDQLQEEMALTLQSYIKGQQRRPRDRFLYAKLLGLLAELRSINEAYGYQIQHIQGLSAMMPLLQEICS
Kind of data set: CAR-mediated fluorescent PGC1α coactivator recruitment/repression assay. To be noted: ratio of IC50 values; for fold increase of IC50 (less potent) relative to lead chemical 11 / fold more potent than lead compound CINPA1 (11): comparator 11 (IC50 687 nM).

Data set [2] concerns PXR. To be noted: cited from earlier work.
For data set [3], the system named is hCAR. As to conditions: cultured human hepatocytes; cited from earlier work.
Data set [4] deals with PXR. As to conditions: only at very high concentrations, 20 or 40 μM; cited from earlier work.
For data set [5], the system named is CAR. As to conditions: only at very high concentrations, 20 or 40 μM; cited from earlier work.

For the molecule `CCOC(=O)Nc1ccc2c(c1)N(C(=O)CN1C(=O)C=CC1=O)c1ccccc1CC2` [Compound 28, Ethyl (5-(2-(2,5-dioxo-2,5-dihydro-1H-pyrrol-1-yl)acetyl)-10,11-dihydro-5H-dibenzo[b,f]azepin-3-yl)carbamate], the “fold IC50 relative to chemical 24” value in data set [1] (comparator 24, less active) is given as 25 fold.
Take `CCOC(=O)Nc1ccc2c(c1)N(C(=O)CCN(CC)CC)c1ccccc1CC2` [Compound 33, Ethyl (5-(3-(diethylamino)propanoyl)-10,11-dihydro-5H-dibenzo[b,f]azepin-3-yl)carbamate]: the “fold increase of IC50 (less potent) relative to lead chemical 11” value in data set [1] is recorded as 3.5 fold.
Turning to `CC(C)OC(=O)Nc1ccc2c(c1)N(C(=O)CCN(C)C)c1ccccc1CC2` [Compound 20], the “fold increase in potency compared to chemical 18” value in data set [1] (comparator 18) is “about 3 fold”.
Take `CCOC(=O)Nc1ccc2c(c1)N(C(=O)CN(CC)CC)c1ccccc1CC2` [Compound 11, ethyl (5-(diethylglycyl)-10,11-dihydro-5H-dibenzo[b,f]azepin-3-yl)carbamate]: in data set [2], the PXR activation entry is reported as “does not activate PXR”.
Consider `CC(C)OC(=O)Nc1ccc2c(c1)N(C(=O)Cn1cccc1)c1ccccc1CC2` [Compound 56, Isopropyl (5-(2-(1H-pyrrol-1-yl)acetyl)-10,11-dihydro-5H-dibenzo[b,f]azepin-3-yl)carbamate], for which the “fold more potent than lead compound CINPA1 (11)” value in data set [1] was determined as 32.8 fold.
For `CCOC(=O)Nc1ccc2c(c1)N(C(=O)CN(C(C)C)C(C)C)c1ccccc1CC2` [Compound 23, Ethyl (5-(diisopropylglycyl)-10,11-dihydro-5H-dibenzo[b,f]azepin-3-yl)carbamate], the “fold increase of IC50 (less potent) relative to lead chemical 11” value in data set [1] was “more than 4 fold”.
As for `CCOC(=O)Nc1ccc2c(c1)N(C(=O)CNC(C)(C)CC)c1ccccc1CC2` [Compound 32, Ethyl (5-(tert-pentylglycyl)-10,11-dihydro-5H-dibenzo[b,f]azepin-3-yl)carbamate], in data set [1], the “fold increase of IC50 (less potent) relative to lead chemical 11” value stood at 3 fold.
For `CCOC(=O)Nc1ccc2c(c1)N(C(=O)CN1CCOCC1)c1ccccc1CC2` [Compound 12], the “fold more potent than lead compound CINPA1 (11)” value in data set [1] is listed as “about 3 fold”.
In the case of `CCOC(=O)Nc1ccc2c(c1)N(C(=O)CN1CCN(C)CC1)c1ccccc1CC2` [Compound 13], the “fold increase of IC50 (less potent) relative to lead chemical 11” value in data set [1] is 56 fold.
Consider `CCOC(=O)Nc1ccc2c(c1)N(C(=O)Cn1ccnc1)c1ccccc1CC2` [Compound 30, Ethyl (5-(2-(1H-imidazol-1-yl)acetyl)-10,11-dihydro-5H-dibenzo[b,f]azepin-3-yl)carbamate], for which the “fold IC50 relative to chemical 29” value in data set [1] (comparator 29, loss of activity) is 186 fold.
Consider `Cc1cccc(CN2CCN(C(c3ccccc3)c3ccc(Cl)cc3)CC2)c1` (stereo not shown) [Meclizine], for which the “hCAR inverse agonist or antagonist effect” value in data set [3] is “failed to act as an effective hCAR inverse agonist or antagonist”.
As for `CCOC(=O)Nc1ccc2c(c1)N(C(=O)Cn1cccc1)c1ccccc1CC2` [Compound 29, Ethyl (5-(2-(1H-pyrrol-1-yl)acetyl)-10,11-dihydro-5H-dibenzo[b,f]azepin-3-yl)carbamate], the “fold more potent than lead compound CINPA1 (11)” value in data set [1] was determined as 19 fold. Besides, in data set [1] (comparator 24), the “fold more potent than chemical 24” value was found to be 43 fold.
As for `CCOC(=O)Nc1ccc2c(c1)N(C(=O)COC(C)(C)C)c1ccccc1CC2` [Compound 35, Ethyl (5-(2-(tert-butoxy)acetyl)-10,11-dihydro-5H-dibenzo[b,f]azepin-3-yl)carbamate], in data set [1], the “fold more potent than lead compound CINPA1 (11)” value came out at 9.7 fold.
As to `CCOC(=O)Nc1ccc2c(c1)N(C(=O)CN1C(C)(C)CCCC1(C)C)c1ccccc1CC2` [Compound 26, Ethyl (5-(2-(2,2,6,6-tetramethylpiperidin-1-yl)acetyl)-10,11-dihydro-5H-dibenzo[b,f]azepin-3-yl)carbamate], the “fold IC50 relative to chemical 25” value in data set [1] (comparator 25) is reported as “over 6 fold”.
As for `C=CCN=C=S` [AITC, allyl isothiocyanate], in data set [4], the “inhibitory effect against PXR” value was “inhibitory effects against both CAR and PXR”. Besides, the “inhibitory effect against CAR” value in data set [5] was “inhibitory effects against both CAR and PXR”.
Regarding `CCOC(=O)Nc1ccc2c(c1)N(C(=O)CNC(C)(C)C)c1ccccc1CC2` [Compound 16], the “fold increase of IC50 (less potent) relative to lead chemical 11” value in data set [1] is listed as 5 fold.
In the case of `CCCN(CCC)CC(=O)N1c2ccccc2CCc2ccc(NC(=O)OCC)cc21` [Compound 22, Ethyl (5-(dipropylglycyl)-10,11-dihydro-5H-dibenzo[b,f]azepin-3-yl)carbamate], the “fold more potent than lead compound CINPA1 (11)” value in data set [1] came out at 3 fold.
Turning to `CCOC(=O)Nc1ccc2c(c1)N(C(=O)CN1CCCC1)c1ccccc1CC2` [Compound 24, Ethyl (5-(2-(pyrrolidin-1-yl)acetyl)-10,11-dihydro-5H-dibenzo[b,f]azepin-3-yl)carbamate], the “fold increase of IC50 (less potent) relative to lead chemical 11” value in data set [1] is reported as “more than 2 fold”.
As to `O=C(Nc1ccc2c(c1)N(C(=O)Cn1cccc1)c1ccccc1CC2)OC1CCCCC1` [Compound 72, Cyclohexyl (5-(2-(1H-pyrrol-1-yl)acetyl)-10,11-dihydro-5H-dibenzo[b,f]azepin-3-yl)carbamate], the “fold more potent than lead compound CINPA1 (11)” value in data set [1] is reported as “about 59 fold”.
Regarding `CCN(CC)CC(=O)N1c2ccccc2CCc2ccc(Nc3nnc(C)o3)cc21` [Compound 44, 2-(Diethylamino)-1-(3-((5-methyl-1,3,4-oxadiazol-2-yl)amino)-10,11-dihydro-5H-dibenzo[b,f]azepin-5-yl)ethan-1-one], the “fold increase of IC50 (less potent) relative to lead chemical 11” value in data set [1] is “about 3.4 fold”.
